According to patent US20250163021A1, “2-METHYL-4-PHENYLPIPERIDIN-4-OL DERIVATIVES AS INHIBITORS OF APOL1 AND METHODS OF USING SAME” (Vertex Pharmaceuticals Incorporated, priority 2022, published 2025):

The compounds below were run against T1, APOL1 (Homo sapiens, UniProt O14791) (assay: MultiTox-Fluor Multiplex Cytotoxicity Assay in tet-inducible APOL1 T-REx-HEK293 cells). Conditions: tet-inducible transgenic APOL1 T-REx-HEK293 cells, 50 ng/mL tet, 24 hours; ratio of dead to live cells; APOL1 variant (G0/G1/G2) not stated; read-out: IP50 (nM) (i.e., IC50 for cell proliferation).
T1 sequence (O14791 1-398 S342G/I384M): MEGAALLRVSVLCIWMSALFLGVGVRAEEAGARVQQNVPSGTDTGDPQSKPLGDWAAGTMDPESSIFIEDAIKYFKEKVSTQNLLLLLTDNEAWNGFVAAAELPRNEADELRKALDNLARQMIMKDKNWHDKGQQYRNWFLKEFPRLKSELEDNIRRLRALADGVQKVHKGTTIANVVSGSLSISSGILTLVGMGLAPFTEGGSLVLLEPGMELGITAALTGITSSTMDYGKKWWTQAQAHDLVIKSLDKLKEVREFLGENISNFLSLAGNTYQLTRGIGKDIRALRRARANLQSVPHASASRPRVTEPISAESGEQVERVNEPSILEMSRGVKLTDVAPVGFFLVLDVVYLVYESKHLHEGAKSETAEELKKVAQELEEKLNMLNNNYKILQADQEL
Type: cell-based
Protocol: The MultiTox-Fluor Multiplex Cytotoxicity Assay is a single-reagent-addition, homogeneous, fluorescence assay that measures the number of live and dead cells simultaneously in culture wells. The assay measures cell viability and cytotoxicity by detecting two distinct protease activities. The live-cell protease activity is restricted to intact viable cells and is measured using a fluorogenic, cell-permeant peptide glycyl-phenylalanylamino fluorocoumarin (GF-AFC) substrate. The substrate enters intact cells, where it is cleaved to generate a fluorescent signal proportional to the number of living cells. […] A second, cell-impermeant, fluorogenic peptide substrate (bis-AAF-R^110 Substrate) is used to measure dead-cell protease that has been released from cells that have lost membrane integrity. A ratio of dead to live cells is used to normalize data.
Briefly, the tet-inducible transgenic APOL1 T-REx-HEK293 cell lines were incubated with 50 ng/mL tet to induce APOL1 in the presence of 3-(2-(4-fluorophenyl)-1H-indol-3-yl)-N-((3S,4R)-4-hydroxy-2-oxopyrrolidin-3-yl)propenamide at 10.03, 3.24, 1.13, 0.356, 0.129, 0.042, 0.129, 0.0045, 0.0015, 0.0005 μM in duplicate for 24 hours in a humidified 37° C. incubator. The MultiTox reagent was added to each well and placed back in the incubator for an additional 30 minutes. The plate was read on the EnVision plate reader. A ratio of dead to live cells was used to normalize, and data was imported, analyzed, and fit using Genedata Screener (Basel, Switzerland) software. Data was normalized using percent of control, no tet (100% viability), and 50 ng/mL tet treated (0% viability),and fit using Smart Fit. The reagents, methods, and complete protocol for the MultiTox assay are described below.
Human embryonic kidney (HEK293) cell lines containing a tet-inducible expression system (T-REx™; Invitrogen, Carlsbad, CA) and Adeno-associated virus site 1 pAAVS1-Puro-APOL1 G0 or pAAVS1-Puro-APOL1 G1 or pAAVS1-Puro-APOL1 G2 Clones G0 DC2.13, G1 DC3.25, and G2 DC4.44 were grown in a T-225 flask at ˜90% confluency in cell growth media (DMEM, 10% Tet-free FBS, 2 mM L-glutamine, 100 Units/mL penicillin-streptomycin, 5 μg/mL blasticidin S HCl, 1 μg/mL puromycin dihydrochloride). Cells were washed with DPBS and then trypsinized to dissociate from the flask. Media was used to quench the trypsin, cells were then pelleted at 200 g and resuspended in fresh cell assay media (DMEM, 2% Tet-free FBS, 2 mM L-glutamine, 100 Units/mL penicillin-streptomycin). Cells were counted and diluted to 1.17×10^6 cells/mL. 20 μL of cells (23,400/well) were dispensed in every well of a 384-well Poly-D-Lysine coated plate using the Multidrop dispenser. The plates were then incubated at room temperature for one hour.
Tetracycline is needed to induce APOL1 expression. 1 mg/mL tet stock in water was diluted to 250 ng/mL (5×) in cell assay media. 60 μL of cell assay media (no tet control) was dispensed in columns 1 and 24, and 60 μL of 5× tet in 384-PP-round bottom plate was dispensed in columns 2 to 23 with the Multidrop dispenser.
Assay ready plates from the Global Compound Archive were ordered using template 384_APOL1Cell_DR10n2_50 μM_v3. Compounds were dispensed at 200 nL in DMSO. The final top concentration was 10 μM with a 10 point 3-fold dilution in duplicate in the MultiTox assay.
20 μL was transferred from the 5× tet plate to the ARP and mixed, then 5 μL of 5× tet and the compounds were transferred to the cell plate and mixed using the Bravo. The cell plate was placed in the humidified 37° C. 5% CO2 incubator for 24 hours.
The MultiTox-Fluor Multiplex Cytotoxicity Assay was performed in accordance with the manufacturer's protocol. After cells were incubated with tet and compound for 24 hours, 25 μL of 1× MultiTox reagent was added to each well using the Multidrop dispenser; the plates were placed on a plate shaker (600 rpm) for 2 minutes, then centrifuged briefly and placed back in the 37° C. incubator for 30 minutes. […]

`C[C@H]1C[C@@](O)(c2cccc(Cl)c2)CCN1Cc1ccc2c(c1)n(C)c(=O)n2C` [Compound 4] and `Cc1cccc([C@@]2(O)CCN(Cc3ccc4c(c3)n(C)c(=O)n4C)[C@@H](C)C2)c1` [Compound 1, 5-[[(2S,4R)-4-hydroxy-2-methyl-4-(m-tolyl)-1-piperidyl]methyl]-1,3-dimethyl-benzimidazol-2-one] cannot be ordered by IC50: no more than 100 nM for the first, 100 to 500 nM for the second.

`C[C@H]1C[C@@](O)(c2ccc(Cl)c(Cl)c2)CCN1Cc1ccc2c(c1)n(C)c(=O)n2C` [Compound 9] and `C[C@@H]1C[C@](O)(c2ccc(Cl)c(Cl)c2)CCN1Cc1ccc2c(c1)n(C)c(=O)n2C` [Compound 12] cannot be ordered by IC50: no more than 100 nM for the first, 100 to 500 nM for the second.

`C[C@H]1C[C@@](O)(c2cccc(C3CC3)c2)CCN1Cc1ccc2c(c1)n(C)c(=O)n2C` [Compound 13] and `C[C@@H]1C[C@](O)(c2cccc(F)c2)CCN1Cc1ccc2c(c1)n(C)c(=O)n2C` [Compound 11] cannot be ordered by IC50: no more than 100 nM for the first, 100 to 500 nM for the second.

First: C[C@H]1C[C@@](O)(c2cccc(Cl)c2)CCN1Cc1cnn(C2CCS(=O)(=O)C2)c1 (stereo partly drawn) [Compound 16, (2S,4R)-4-(3-chlorophenyl)-1-[[1-(1,1-dioxothiolan-3-yl)pyrazol-4-yl]methyl]-2-methyl-piperidin-4-ol]
Second: CC(C)n1cc(CN2CC[C@](O)(c3cccc(Cl)c3)C[C@@H]2C)cn1 [Compound 17]
The IC50 of the first is lower: 100 to 500 nM for the first, 500 to 5000 nM for the second.

`Cc1nc(CN2CC[C@](O)(c3cccc(Cl)c3)C[C@@H]2C)co1` [Compound 25] and `Cc1nc(CN2CC[C@](O)(c3cccc(Cl)c3)C[C@@H]2C)c[nH]1` [Compound 26] fall in the same range of IC50: 500 to 5000 nM for the first, 500 to 5000 nM for the second.

First: C[C@H]1C[C@](O)(c2ccc(Cl)cc2)CCN1Cc1ccc2c(c1)n(C)c(=O)n2C [Compound 6]
Second: C[C@H]1C[C@@](O)(c2ccc(Cl)cc2)CCN1Cc1ccc2c(c1)n(C)c(=O)n2C [Compound 7]
The IC50 of the first is higher: 500 to 5000 nM for the first, no more than 100 nM for the second.

`Cc1ncc(CN2CC[C@](O)(c3cccc(Cl)c3)C[C@@H]2C)cn1` [Compound 19] and `C[C@H]1C[C@@](O)(c2cccc(Cl)c2)CCN1Cc1ncco1` [Compound 22] fall in the same range of IC50: 500 to 5000 nM for the first, 500 to 5000 nM for the second.

`C[C@H]1C[C@@](O)(c2cccc(Cl)c2)CCN1Cc1cnn(CCS(C)(=O)=O)c1` [Compound 21] and `C[C@H]1C[C@@](O)(c2cccc(Cl)c2)CCN1Cc1cnn(CC(=O)N(C)C)c1` [Compound 20] cannot be ordered by IC50: no more than 100 nM for the first, 100 to 500 nM for the second.

First: Cc1ccc(CN2CC[C@](O)(c3cccc(Cl)c3)C[C@@H]2C)nn1 [Compound 18]
Second: C[C@H]1C[C@@](O)(c2cccc(Cl)c2)CCN1Cc1ccc(C(N)=O)cc1 [Compound 24]
The IC50 of the first is higher: 500 to 5000 nM for the first, 100 to 500 nM for the second. The second is the more potent here.

`Cc1cc(C)cc([C@@]2(O)CCN(Cc3ccc4c(c3)n(C)c(=O)n4C)[C@@H](C)C2)c1` [Compound 15] and `C[C@H]1C[C@@](O)(c2cc(F)cc(Cl)c2)CCN1Cc1ccc2c(c1)n(C)c(=O)n2C` [Compound 8] cannot be ordered by IC50: no more than 100 nM for the first, no more than 100 nM for the second.

First: C[C@H]1C[C@@](O)(c2ccc3c(c2)CCO3)CCN1Cc1ccc2c(c1)n(C)c(=O)n2C [Compound 14]
Second: C[C@@H]1C[C@](O)(c2ccc(Cl)cc2)CCN1Cc1ccc2c(c1)n(C)c(=O)n2C [Compound 10]
The IC50 of the first is higher: 500 to 5000 nM for the first, no more than 100 nM for the second. The second is the more potent here.

`C[C@H]1CC(O)(c2cccc(C(F)(F)F)c2)CCN1Cc1ccc2c(c1)n(C)c(=O)n2C` (some centres unmarked) [Compound 5] and `C[C@H]1C[C@@](O)(c2ccccc2)CCN1Cc1ccc2c(c1)n(C)c(=O)n2C` [Compound 2] fall in the same range of IC50: 100 to 500 nM for the first, 100 to 500 nM for the second.

Compared with `C[C@H]1C[C@@](O)(c2cccc(Cl)c2)CCN1Cc1cnn(-c2ccccn2)c1` [Compound 23], `C[C@@H]1C[C@](O)(c2ccccc2)CCN1Cc1ccc2c(c1)n(C)c(=O)n2C` [Compound 3] is higher in IC50: no more than 100 nM for the first, 500 to 5000 nM for the second.
